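1) Cells in 96-well plates. 2) Compound, 48 h, 5 concentrations. 3) Linear interpolation between surrounding doses. 4) Unreached endpoint = highest concentration. GI50 = concentration required for 50% inhibition of growth.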 Active and inactive are the calls of the source. Cut-off read from the data, not from the text of the source: active = GI50 up to about 1.1 µM and inactive = higher.
Key:
Assay in all cases: NCI-60 cell line screen, 48 h
[1] = system: UACC-257
[2] = system: NCI/ADR-RES
[3] = system: UACC-62
[4] = system: 786-0
[5] = system: CAKI-1
[6] = system: SF-295
[7] = system: SNB-19
[8] = system: U-251
[9] = system: OVCAR-3
[10] = system: OVCAR-5
[11] = system: HT-29
[12] = system: MOLT-4
[13] = system: KM12
[14] = system: HCT-15
[15] = system: A549
[16] = system: ACHN
[17] = system: SNB-75
[18] = system: TK-10
[19] = system: SK-MEL-5

Compound	GI50 [1]	GI50 [2]	GI50 [3]	GI50 [4]	GI50 [5]	GI50 [6]	GI50 [7]	GI50 [8]	GI50 [9]	GI50 [10]	GI50 [11]	GI50 [12]	GI50 [13]	GI50 [14] [µM]	GI50 [15]	GI50 [16]	GI50 [17]	GI50 [18]	GI50 [19]
c1cc(-c2ccc(-c3nc4ccc(C5=NCCN5)cc4s3)s2)ccc1C1=NCCN1	22.5 µM (inactive)	5.53 µM (inactive)	1.12 µM (inactive)	0.156 µM (active)	1.51 µM (inactive)	0.301 µM (active)	0.618 µM (active)	0.222 µM (active)	0.979 µM (active)	0.444 µM (active)	0.596 µM (active)	0.0968 µM (active)	0.565 µM (active)	2.17	0.166 µM (active)	0.562 µM (active)	0.222 µM (active)	0.804 µM (active)	0.955 µM (active)
COc1cc(/C=C2\N=C(c3ccccc3)N(c3nc4ccc(Sc5ccccc5)cc4[nH]3)C2=O)cc(OC)c1OC	19.6 µM (inactive)	20.4 µM (inactive)	15.4 µM (inactive)	20.4 µM (inactive)	31.1 µM (inactive)	23.6 µM (inactive)	33.6 µM (inactive)	18.3 µM (inactive)	22.6 µM (inactive)	33.7 µM (inactive)	21.4 µM (inactive)	26.8 µM (inactive)	17.6 µM (inactive)	21.1	34.3 µM (inactive)	22.9 µM (inactive)	17.4 µM (inactive)	24.6 µM (inactive)	13.2 µM (inactive)
COC(=O)C(CC(C)C)NC(=O)C(NC(=O)c1ccc(-c2ccc(Cl)cc2Cl)o1)C(C)C (configuration not stated)	17.1 µM (inactive)	18.7 µM (inactive)	13.1 µM (inactive)	16.1 µM (inactive)	15.7 µM (inactive)	16.2 µM (inactive)	30.5 µM (inactive)	17.9 µM (inactive)	16.3 µM (inactive)	22.2 µM (inactive)	15.3 µM (inactive)	12.9 µM (inactive)	20.8 µM (inactive)	20.7	21 µM (inactive)	20.8 µM (inactive)	23.9 µM (inactive)	27.4 µM (inactive)	20.3 µM (inactive)
